Source: ChEMBL document CHEMBL3853342, “Design, synthesis and biological evaluation of novel benzo-α-pyrone containing piperazine derivatives as potential BRAFV600E inhibitors” (Bioorg Med Chem Lett, 2016)

What was measured:
[1] = biological target: Serine/threonine-protein kinase B-raf (Homo sapiens, UniProt P15056, V600E); assay: Inhibition of human recombinant GST-tagged BRAF catalytic domain (416 to 766 residues) V600E mutant expressed in baculovirus expression system preincubated for 1 hr followed by human full length recombinant N-terminal His-tagged MEK1 substrate addition measured after 25 mins by gel electrophoresis method
Sequence of Serine/threonine-protein kinase B-raf (P15056 2-766 V600E limits assumed): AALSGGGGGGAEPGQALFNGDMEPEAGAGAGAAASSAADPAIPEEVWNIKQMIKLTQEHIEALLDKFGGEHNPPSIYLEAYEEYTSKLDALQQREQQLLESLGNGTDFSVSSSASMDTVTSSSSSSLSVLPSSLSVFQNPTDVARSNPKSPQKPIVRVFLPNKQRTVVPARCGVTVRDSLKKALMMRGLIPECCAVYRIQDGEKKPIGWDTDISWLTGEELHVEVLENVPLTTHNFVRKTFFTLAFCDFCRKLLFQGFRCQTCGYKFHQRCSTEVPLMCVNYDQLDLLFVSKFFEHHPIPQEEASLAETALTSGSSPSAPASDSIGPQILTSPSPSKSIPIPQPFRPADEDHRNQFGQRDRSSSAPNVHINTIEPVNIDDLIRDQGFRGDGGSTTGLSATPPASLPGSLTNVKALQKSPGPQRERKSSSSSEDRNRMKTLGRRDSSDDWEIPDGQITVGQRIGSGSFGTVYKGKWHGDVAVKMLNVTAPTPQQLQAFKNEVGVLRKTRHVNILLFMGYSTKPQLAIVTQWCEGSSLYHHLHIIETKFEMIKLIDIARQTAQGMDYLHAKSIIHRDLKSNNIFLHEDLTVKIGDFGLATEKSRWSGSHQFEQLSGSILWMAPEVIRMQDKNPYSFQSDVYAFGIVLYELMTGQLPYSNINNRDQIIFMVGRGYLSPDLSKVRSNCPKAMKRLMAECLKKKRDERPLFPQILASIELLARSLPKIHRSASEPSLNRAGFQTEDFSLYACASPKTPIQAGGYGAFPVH

[2] = Antiproliferative activity against human A375 cells assessed as cell growth inhibition after 24 hrs by MTT assay; type: functional, cell-based; details: A-375, 24 h
[3] = Antiproliferative activity against human WM266.4 cells harboring BRAF V600E mutant assessed as cell growth inhibition after 24 hrs by MTT assay; type: functional, cell-based; details: WM 266-4, 24 h
[4] = Antiproliferative activity against human WM1361 cells assessed as cell growth inhibition after 24 hrs by MTT assay; type: functional, cell-based; details: WM1361, 24 h
[5] = Cytotoxicity against human 293T cells assessed as cell growth inhibition after 24 hrs by MTT assay; type: toxicity, cell-based, HEK-293T

| Compound | IC50 [1] [µM] | IC50 [2] [µM] | IC50 [3] [µM] | IC50 [4] [µM] | CC50 at 24 h [5] [µM] |
| --- | --- | --- | --- | --- | --- |
| O=c1oc2ccccc2c(N2CCN(c3ccccc3)CC2)c1CO | 8.93 | 17.2 | 16.6 | > 50 | > 50 |
| CCN1CCN(c2c(CO)c(=O)oc3ccccc23)CC1 | > 50 | > 50 | > 50 | > 100 | > 50 |
| O=c1oc2ccccc2c(N2CCN(c3ccc(F)cc3)CC2)c1CO | 17.8 | 24.7 | 23.4 | > 50 | > 50 |
| O=c1oc2ccccc2c(N2CCN(C(c3ccccc3)c3ccc(Cl)cc3)CC2)c1CO (stereo not given) | 0.92 | 3.89 | 2.74 | 30.2 | > 50 |
